In patent publication US20040024024A1, “Aromatic sulfone hydroxamates and their use as protease inhibitors” (priority 2001, published 2004):

How the values were obtained:
Experiment in all cases: In vitro MMP inhibition, IC50 determination (fluorogenic substrate I)
Type in all cases: biochemical
Settings in all cases: value outside parentheses
Human recombinant MMP-1 = target: T1, Human recombinant MMP-1 (Homo sapiens, UniProt P03956)
T1 construct: made in house; host or cells: MMP-1-transfected HT-1080 cells (spent media)
T1 sequence (P03956 100-469): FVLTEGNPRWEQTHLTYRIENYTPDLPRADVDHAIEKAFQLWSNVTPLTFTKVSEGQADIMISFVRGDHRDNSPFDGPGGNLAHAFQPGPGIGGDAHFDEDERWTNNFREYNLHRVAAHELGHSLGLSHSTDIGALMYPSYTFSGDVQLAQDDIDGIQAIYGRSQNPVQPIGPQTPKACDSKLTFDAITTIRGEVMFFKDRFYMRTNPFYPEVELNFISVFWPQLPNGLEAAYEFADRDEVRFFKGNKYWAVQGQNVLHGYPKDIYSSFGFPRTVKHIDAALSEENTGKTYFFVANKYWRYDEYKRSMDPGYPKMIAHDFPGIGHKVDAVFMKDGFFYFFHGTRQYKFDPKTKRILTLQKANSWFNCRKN
Method in brief: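 Inhibitor dilutions were made in 100 mM Tris-HCl/100 mM NaCl/10 mM CaCl2 buffer, pH 7.5, and incubated at room temperature with activated proenzyme (from transfected HT-1080 media; APMA or trypsin) and 4 μM quenched methoxycoumarin peptide substrate. Loss of 415 nm fluorescence (328 nm excitation) against concentration gave IC50.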

Human recombinant MMP-2 = target: T2, Human recombinant MMP-2 (Homo sapiens, UniProt P08253)
T2 construct: made in house; host or cells: MMP-2-transfected p2AHT2 cells
T2 sequence (P08253 110-660): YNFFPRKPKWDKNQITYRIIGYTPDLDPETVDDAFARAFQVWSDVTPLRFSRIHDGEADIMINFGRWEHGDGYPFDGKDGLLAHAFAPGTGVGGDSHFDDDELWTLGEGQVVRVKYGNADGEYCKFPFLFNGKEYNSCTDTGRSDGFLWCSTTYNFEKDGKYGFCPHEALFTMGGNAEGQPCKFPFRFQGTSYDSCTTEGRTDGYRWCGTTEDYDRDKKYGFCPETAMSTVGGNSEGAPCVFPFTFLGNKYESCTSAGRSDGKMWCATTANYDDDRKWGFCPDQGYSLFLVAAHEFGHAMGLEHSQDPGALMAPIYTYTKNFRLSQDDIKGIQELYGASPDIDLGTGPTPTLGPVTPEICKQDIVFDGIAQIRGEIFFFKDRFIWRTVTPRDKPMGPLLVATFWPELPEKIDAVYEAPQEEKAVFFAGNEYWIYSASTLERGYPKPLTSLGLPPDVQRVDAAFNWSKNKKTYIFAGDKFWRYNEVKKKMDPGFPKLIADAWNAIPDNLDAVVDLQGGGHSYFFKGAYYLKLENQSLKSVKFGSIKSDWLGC
Method in brief: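 IC50 was derived from the concentration-dependent fall in fluorescence (ex 328, em 415 nm) on Gly-Leu cleavage of 4 μM MCA/Dpa-quenched substrate I. Assays ran at room temperature in pH 7.5 Tris/NaCl/CaCl2/Brij buffer with MMP-2 activated by trypsin or APMA; inhibitors were diluted from 1% DMSO stocks.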

Human recombinant MMP-9 = target: T3, Human recombinant MMP-9 (Homo sapiens, UniProt P14780)
T3 construct: made in house; host or cells: MMP-9-transfected HT1080 cells (spent media)
Method in brief: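 Reduction in fluorescence (328 nm excitation, 415 nm emission) from cleavage of 4 μM quenched peptide substrate I, measured at room temperature against inhibitor concentration, gave IC50. Enzyme: trypsin- or APMA-activated MMP-9 purified from transfected HT1080 medium; buffer 100 mM Tris, 100 mM NaCl, 10 mM CaCl2, pH 7.5.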

Human recombinant MMP-13 = target: T4, Human recombinant MMP-13 (Homo sapiens, UniProt P45452)
T4 construct: made in house; host or cells: baculovirus / insect cells
Method in brief: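 Fluorescence at 415 nm (excitation 328 nm) reports Gly-Leu cleavage of 4 μM quenched methoxycoumarin peptide substrate I. Human recombinant MMP-13, activated by trypsin or APMA, was incubated at room temperature with varied inhibitor concentrations in pH 7.5 Tris/NaCl/CaCl2 buffer; IC50 derived from reduced fluorescence.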

Human recombinant MMP-14 = target: T5, Human recombinant MMP-14 (Homo sapiens, UniProt P50281)
T5 construct: The catalytic domain enzyme was expressed in E. coli inclusion bodies, solubilized in urea; made in house
Method in brief: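 IC50 came from reduced fluorescence (ex 328 nm, em 415 nm) as inhibitor concentration rose, with 4 μM substrate I cleaved at Gly-Leu. Room-temperature incubation in pH 7.5 Tris buffer with 10 mM CaCl2; the E. coli-expressed, refolded MMP-14 catalytic domain was activated with trypsin or APMA.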

T3 sequence (P14780 107-707 limits assumed): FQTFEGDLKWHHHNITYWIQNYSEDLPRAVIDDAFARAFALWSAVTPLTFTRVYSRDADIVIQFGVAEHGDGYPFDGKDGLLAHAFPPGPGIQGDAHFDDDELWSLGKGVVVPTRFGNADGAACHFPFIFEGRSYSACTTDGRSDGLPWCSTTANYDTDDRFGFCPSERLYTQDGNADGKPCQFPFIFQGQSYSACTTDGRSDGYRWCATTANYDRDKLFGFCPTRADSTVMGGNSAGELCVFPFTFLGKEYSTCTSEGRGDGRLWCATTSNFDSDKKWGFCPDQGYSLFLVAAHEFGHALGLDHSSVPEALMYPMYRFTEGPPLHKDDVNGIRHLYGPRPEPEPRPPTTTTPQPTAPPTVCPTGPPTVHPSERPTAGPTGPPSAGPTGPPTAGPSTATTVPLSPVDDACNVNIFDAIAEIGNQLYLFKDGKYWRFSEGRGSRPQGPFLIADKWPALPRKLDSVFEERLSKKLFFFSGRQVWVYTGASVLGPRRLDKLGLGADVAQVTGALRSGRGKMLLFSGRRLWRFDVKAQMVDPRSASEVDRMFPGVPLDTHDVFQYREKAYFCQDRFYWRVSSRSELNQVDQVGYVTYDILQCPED

| IC50 (Human recombinant MMP-1) [nM] | IC50 (Human recombinant MMP-2) [nM] | IC50 (Human recombinant MMP-9) [nM] | IC50 (Human recombinant MMP-13) [nM] | IC50 (Human recombinant MMP-14) [nM] | Compound |
| --- | --- | --- | --- | --- | --- |
| 815 | 1.9 | 25.8 | 1.7 | 505 | O=C(CCOc1ccc(S(=O)(=O)C2(C(=O)NO)CCOCC2)cc1)c1ccccc1 [Example 495] |
| > 10000 | 184 | 7710 | 1.4 | > 10000 | COc1ccc(-c2nnc(CCCOc3ccc(S(=O)(=O)C4(C(=O)NO)CCOCC4)cc3)o2)cc1 [Example 501] |
| 4920 | 1.9 | 42.6 | 1.3 | 2060 | O=C(Cc1ccsc1)NCCOc1ccc(S(=O)(=O)C2(C(=O)NO)CCOCC2)cc1 [Example 601] |
| > 10000 | 45.2 | 2300 | 0.1 | > 10000 | O=C(NO)C1(S(=O)(=O)c2ccc(OCCCc3cc(-c4ccc(F)cc4)cs3)cc2)CCOCC1 [Example 607] |
| > 10000 | 1.1 | 3.6 | 0.4 | 6700 | COCCN1CCC(C(=O)NO)(S(=O)(=O)c2ccc(OCCCSc3nc4ccccc4s3)cc2)CC1 [Example 615] |

Second part, the compound before the results:

| Compound | IC50 (Human recombinant MMP-1) [nM] | IC50 (Human recombinant MMP-2) [nM] | IC50 (Human recombinant MMP-9) [nM] | IC50 (Human recombinant MMP-13) [nM] | IC50 (Human recombinant MMP-14) [nM] |
| --- | --- | --- | --- | --- | --- |
| O=C(NO)C1(S(=O)(=O)c2ccc(OCCSc3nc4ccc(Cl)cc4o3)cc2)CCOCC1 [Example 502] | > 10000 | 22.7 | 160 | 1 | 5640 |
| O=C(NO)C1(S(=O)(=O)c2ccc(OCCOCc3ccccn3)cc2)CCOCC1 [Example 515] | > 10000 | 89.8 | 154 | 24.2 | > 10000 |
| O=C(NO)C1(S(=O)(=O)c2ccc(OCCOCc3ccncc3)cc2)CCOCC1 [Example 516] | > 10000 | 41.9 | 120 | 9.55 | 9430 |
| O=C(NO)C1(S(=O)(=O)c2ccc(OCCCOCc3ccccn3)cc2)CCOCC1 [Example 519] | > 10000 | 170 | 422 | 2.18 | > 10000 |
| O=C(NO)C1(S(=O)(=O)c2ccc(OCCCOCc3cccnc3)cc2)CCOCC1 [Example 520] | > 10000 | 54.2 | 36.4 | 0.62 | 4300 |
| O=C(NCCSc1ccc(S(=O)(=O)C2(C(=O)NO)CCOCC2)cc1)c1nc2ccccc2o1 [Example 576] | > 10000 | 233 | 397 | 0.3 | > 10000 |
| O=C(NO)C1(S(=O)(=O)c2ccc(OCCCc3cc(-c4ccc(F)c(F)c4)cs3)cc2)CCOCC1 [Example 580] | > 10000 | 136 | 417 | 0.6 | > 10000 |
| O=C(NO)C1(S(=O)(=O)c2ccc(OCCCc3cccc(C4CCCCN4)c3)cc2)CCN(C2CC2)CC1 (stereo not drawn) [Example 609] | > 10000 | 580 | 6890 | 7.7 | > 10000 |
| O=C(NO)C1(S(=O)(=O)c2ccc(OCCCSc3nc4ccccc4s3)cc2)CCN(CC2CC2)CC1 [Example 614] | > 10000 | 1.8 | 8.5 | 0.7 | 9440 |
| COc1ccc(CC(=O)NCCOc2ccc(S(=O)(=O)C3(C(=O)NO)CCOCC3)cc2)cc1 [Example 616] | 1580 | 5.3 | 54.8 | 2 | 1970 |
